We go through ten molecules from patent US20240082274A1, “FUNGAL COMPOUND COMPOSITIONS AND METHODS FOR MODULATING INFLAMMATION” (TURTLE BEAR HOLDINGS, LLC, priority 2021, published 2024).

The conditions of assay [1]: Flanagan and Nichols, 2018; cited from earlier work.
A further assay has as its target 5-HT2A receptor (Homo sapiens, UniProt P28223). As to conditions: Flanagan and Nichols, 2018; cited from earlier work.
The target of a further assay is T1, MAO-A (Homo sapiens, UniProt P21397).
T1 sequence (P21397 1-527): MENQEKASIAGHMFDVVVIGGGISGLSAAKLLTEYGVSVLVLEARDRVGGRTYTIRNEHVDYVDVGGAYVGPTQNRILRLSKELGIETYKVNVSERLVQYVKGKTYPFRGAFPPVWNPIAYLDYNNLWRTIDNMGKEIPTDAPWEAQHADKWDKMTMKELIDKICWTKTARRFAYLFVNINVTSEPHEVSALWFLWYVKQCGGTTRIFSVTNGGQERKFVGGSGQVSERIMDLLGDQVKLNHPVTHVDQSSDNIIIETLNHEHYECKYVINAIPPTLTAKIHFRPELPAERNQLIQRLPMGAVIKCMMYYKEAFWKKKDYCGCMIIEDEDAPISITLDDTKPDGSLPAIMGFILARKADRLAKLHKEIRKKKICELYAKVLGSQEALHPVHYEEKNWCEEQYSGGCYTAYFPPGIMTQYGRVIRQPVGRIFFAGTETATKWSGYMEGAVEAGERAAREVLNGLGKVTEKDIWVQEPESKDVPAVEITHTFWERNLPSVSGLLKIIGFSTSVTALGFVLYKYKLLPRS
As to conditions: Herraiz et al., 2010; cited from earlier work.

The target in a further assay is T2, MAO-B (Homo sapiens, UniProt P27338).
T2 sequence (P27338 1-520): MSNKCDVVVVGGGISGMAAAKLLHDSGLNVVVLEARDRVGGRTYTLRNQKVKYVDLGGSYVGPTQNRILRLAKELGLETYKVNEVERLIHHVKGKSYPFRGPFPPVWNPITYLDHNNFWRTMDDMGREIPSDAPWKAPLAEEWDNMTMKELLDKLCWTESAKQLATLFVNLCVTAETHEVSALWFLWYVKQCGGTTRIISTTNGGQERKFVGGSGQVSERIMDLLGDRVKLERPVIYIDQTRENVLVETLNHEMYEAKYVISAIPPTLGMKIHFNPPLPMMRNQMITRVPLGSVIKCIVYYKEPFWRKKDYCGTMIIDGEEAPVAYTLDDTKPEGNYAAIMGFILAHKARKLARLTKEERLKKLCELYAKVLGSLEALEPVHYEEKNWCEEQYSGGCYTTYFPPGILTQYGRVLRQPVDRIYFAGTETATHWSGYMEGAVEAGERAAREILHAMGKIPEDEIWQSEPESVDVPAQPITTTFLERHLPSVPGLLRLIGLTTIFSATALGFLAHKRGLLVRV
As to conditions: Herraiz et al., 2010; cited from earlier work.

Another assay has as its target T3, p38-alpha (MAPK14) (Homo sapiens, UniProt Q16539).
T3 construct: purchased DiscoveRx
Description: MAPK binding affinity screen (DiscoveRx). As to conditions: component alone.

Another assay relates to IL-10. Nature of the assay: IL-10 expression in human PBMCs under standard non-inflammatory conditions. Format: cell-based. As to conditions: at multiple concentrations. The protocol: In a separate experiment, human peripheral blood mononuclear cells (PBMCs) were treated with different concentrations of norbaeocystin, norpsilocin, and vehicle control under standard non-inflammatory conditions, and IL-10 expression was measured.

Assay [2] addresses T4, JAK1 (JH1domain-catalytic) (Homo sapiens, UniProt P23458).
T4 construct: (JH1domain-; purchased DiscoveRx
Description: MAPK binding affinity screen (DiscoveRx). As to conditions: component alone.

A further assay has as its target T5, JNK3 (MAPK10) (Homo sapiens, UniProt P53779).
T5 construct: purchased DiscoveRx
Description: MAPK binding affinity screen (DiscoveRx). The settings on record: component alone.

The next assay concerns TNF-α. Description: TNF-α expression in LPS-induced human PBMCs. Format: cell-based. As to conditions: 100 ng/mL LPS, individual components, FIG. 13.
For the next assay, the system named is PC12 cells. Description: Neurite outgrowth in rat PC12 cells. The class given is cell-based. The settings on record: 6 days. From the text: Rat PC12 cells are a cell line derived from rat pheochromocytoma and are an immortalised cell line similar to the primary culture of fetal neurons. These cells are relatively easy to passage and culture and have some features of neurons, which makes them useful in the study of nerve physiology and pharmacology.

The test system of a further assay is MAPK. Nature of the assay: MAPK binding screen, general statements. The settings on record: low ng concentrations. From the text: It was identified that many combination formulations of tryptamines, He/PEP/Erinacine C, and niacin can interact with several mitogen-activated protein kinases (MAPKs) involved with brain health and can even provide synergistic benefits (Tables 7-8).
It was surprising and unexpected that such dilute psilocin at low ng concentrations produced a synergistic effect on MAPK binding when combined with other components because these low concentrations had no effect on MAPK binding when used alone. Therefore, one would have expected these low concentrations to be ineffective. The low concentrations also overcome the pharmacodynamic issues faced when using high concentrations of psilocin.

The conditions of assay [3]: cited from earlier work.
The next assay has as its target T6, TRKA (NTRK1) (Homo sapiens, UniProt P04629).
T6 construct: purchased DiscoveRx
Description: MAPK binding affinity screen (DiscoveRx). As to conditions: component alone.

For another assay, the target named is T7, TRKB (NTRK2) (Homo sapiens, UniProt Q16620).
T7 construct: purchased DiscoveRx
Nature of the assay: MAPK binding affinity screen (DiscoveRx). As to conditions: component alone, row of combination at 5 μg/mL.

The target of the next assay is T8, ROCK2 (Homo sapiens, UniProt O75116).
T8 construct: purchased DiscoveRx
Nature of the assay: MAPK binding affinity screen (DiscoveRx). As to conditions: component alone, row of combination at 62.5 μg/mL.

For a further assay, the system named is IL-6. As to conditions: human PBMCs, 100 ng/mL LPS; 0.43 μg/mL; FIG. 12.
Setting [4] is: row of combination at 250 μg/mL.
[5] abbreviates: row of combination at 16, 16 ng/mL.
Where [6] appears, read: row of combination at 0.6, 0.6 ng/mL.
Setting [7] is: row of combination at 3, 0.2 ng/mL.
Setting [8] is: row of combination at 125 μg/mL.
Where [9] appears, read: row of combination at 2.5 μg/mL.

T3 sequence (Q16539 whole entry): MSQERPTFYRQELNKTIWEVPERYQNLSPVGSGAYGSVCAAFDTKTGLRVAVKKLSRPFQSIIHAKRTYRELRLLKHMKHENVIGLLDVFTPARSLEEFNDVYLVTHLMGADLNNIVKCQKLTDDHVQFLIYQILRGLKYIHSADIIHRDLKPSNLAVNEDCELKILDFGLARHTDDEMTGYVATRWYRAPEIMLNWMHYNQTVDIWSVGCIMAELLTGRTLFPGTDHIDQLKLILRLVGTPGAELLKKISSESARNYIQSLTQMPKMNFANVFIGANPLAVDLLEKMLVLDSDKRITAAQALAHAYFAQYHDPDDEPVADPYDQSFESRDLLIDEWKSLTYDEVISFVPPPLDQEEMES
T4 sequence (P23458 875-1153 limits assumed): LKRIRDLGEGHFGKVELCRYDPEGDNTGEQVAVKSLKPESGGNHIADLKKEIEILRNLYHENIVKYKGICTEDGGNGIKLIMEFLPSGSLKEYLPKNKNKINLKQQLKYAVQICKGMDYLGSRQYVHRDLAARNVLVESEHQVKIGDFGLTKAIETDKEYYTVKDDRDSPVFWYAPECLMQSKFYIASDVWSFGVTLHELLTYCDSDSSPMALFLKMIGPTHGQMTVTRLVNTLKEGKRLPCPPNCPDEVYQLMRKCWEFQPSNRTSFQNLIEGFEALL
T6 sequence (P04629 33-796): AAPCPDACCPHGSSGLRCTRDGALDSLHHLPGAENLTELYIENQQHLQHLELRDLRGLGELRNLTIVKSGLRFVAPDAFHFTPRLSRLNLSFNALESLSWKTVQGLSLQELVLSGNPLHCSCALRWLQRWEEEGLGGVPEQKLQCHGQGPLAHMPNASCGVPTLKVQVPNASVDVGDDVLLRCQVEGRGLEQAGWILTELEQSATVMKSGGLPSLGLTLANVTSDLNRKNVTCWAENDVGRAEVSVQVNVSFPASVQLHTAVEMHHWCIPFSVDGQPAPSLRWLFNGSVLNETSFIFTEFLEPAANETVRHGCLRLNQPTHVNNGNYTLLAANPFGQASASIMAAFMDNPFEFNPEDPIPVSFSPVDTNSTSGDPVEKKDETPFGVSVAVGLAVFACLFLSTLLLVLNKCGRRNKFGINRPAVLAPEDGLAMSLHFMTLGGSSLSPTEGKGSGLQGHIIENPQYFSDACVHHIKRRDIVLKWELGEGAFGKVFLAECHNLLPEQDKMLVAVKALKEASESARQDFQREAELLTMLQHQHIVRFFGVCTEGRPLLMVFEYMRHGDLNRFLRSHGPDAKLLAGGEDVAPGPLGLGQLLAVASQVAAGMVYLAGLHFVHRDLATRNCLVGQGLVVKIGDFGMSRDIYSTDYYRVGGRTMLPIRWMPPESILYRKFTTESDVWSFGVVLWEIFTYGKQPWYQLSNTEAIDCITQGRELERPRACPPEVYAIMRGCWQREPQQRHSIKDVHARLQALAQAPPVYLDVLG
T5 sequence (P53779 whole entry): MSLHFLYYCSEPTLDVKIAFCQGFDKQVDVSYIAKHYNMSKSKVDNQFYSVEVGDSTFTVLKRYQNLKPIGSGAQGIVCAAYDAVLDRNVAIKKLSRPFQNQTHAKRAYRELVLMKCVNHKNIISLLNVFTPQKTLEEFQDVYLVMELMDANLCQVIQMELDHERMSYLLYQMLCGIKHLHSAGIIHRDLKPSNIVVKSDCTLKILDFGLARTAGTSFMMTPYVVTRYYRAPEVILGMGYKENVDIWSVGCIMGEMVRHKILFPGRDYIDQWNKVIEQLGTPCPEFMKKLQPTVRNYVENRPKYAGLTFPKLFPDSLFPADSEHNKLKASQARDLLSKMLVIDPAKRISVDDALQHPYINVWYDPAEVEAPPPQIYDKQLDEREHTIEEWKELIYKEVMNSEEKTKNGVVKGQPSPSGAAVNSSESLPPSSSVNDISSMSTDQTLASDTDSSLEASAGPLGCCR
T7 sequence (Q16620 32-822): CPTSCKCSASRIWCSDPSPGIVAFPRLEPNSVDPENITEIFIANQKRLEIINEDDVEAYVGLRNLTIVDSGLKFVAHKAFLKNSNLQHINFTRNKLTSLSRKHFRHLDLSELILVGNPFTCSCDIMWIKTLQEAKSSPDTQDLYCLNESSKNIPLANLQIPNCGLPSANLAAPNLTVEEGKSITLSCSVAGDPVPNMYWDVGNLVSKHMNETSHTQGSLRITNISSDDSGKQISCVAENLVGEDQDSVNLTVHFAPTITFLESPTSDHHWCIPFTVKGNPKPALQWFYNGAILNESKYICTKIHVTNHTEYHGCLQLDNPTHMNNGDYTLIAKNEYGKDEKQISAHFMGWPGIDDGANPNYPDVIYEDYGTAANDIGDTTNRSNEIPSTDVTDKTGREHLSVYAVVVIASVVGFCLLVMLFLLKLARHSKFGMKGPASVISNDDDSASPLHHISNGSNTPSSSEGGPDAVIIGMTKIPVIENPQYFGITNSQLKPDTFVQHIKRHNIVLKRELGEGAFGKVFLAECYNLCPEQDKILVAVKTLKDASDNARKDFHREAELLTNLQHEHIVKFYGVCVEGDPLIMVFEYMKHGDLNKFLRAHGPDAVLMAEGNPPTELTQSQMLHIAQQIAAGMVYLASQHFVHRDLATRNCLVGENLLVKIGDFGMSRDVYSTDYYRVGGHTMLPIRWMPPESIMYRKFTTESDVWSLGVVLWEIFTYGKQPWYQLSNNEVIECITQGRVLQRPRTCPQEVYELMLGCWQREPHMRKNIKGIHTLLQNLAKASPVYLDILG
T8 sequence (O75116 whole entry): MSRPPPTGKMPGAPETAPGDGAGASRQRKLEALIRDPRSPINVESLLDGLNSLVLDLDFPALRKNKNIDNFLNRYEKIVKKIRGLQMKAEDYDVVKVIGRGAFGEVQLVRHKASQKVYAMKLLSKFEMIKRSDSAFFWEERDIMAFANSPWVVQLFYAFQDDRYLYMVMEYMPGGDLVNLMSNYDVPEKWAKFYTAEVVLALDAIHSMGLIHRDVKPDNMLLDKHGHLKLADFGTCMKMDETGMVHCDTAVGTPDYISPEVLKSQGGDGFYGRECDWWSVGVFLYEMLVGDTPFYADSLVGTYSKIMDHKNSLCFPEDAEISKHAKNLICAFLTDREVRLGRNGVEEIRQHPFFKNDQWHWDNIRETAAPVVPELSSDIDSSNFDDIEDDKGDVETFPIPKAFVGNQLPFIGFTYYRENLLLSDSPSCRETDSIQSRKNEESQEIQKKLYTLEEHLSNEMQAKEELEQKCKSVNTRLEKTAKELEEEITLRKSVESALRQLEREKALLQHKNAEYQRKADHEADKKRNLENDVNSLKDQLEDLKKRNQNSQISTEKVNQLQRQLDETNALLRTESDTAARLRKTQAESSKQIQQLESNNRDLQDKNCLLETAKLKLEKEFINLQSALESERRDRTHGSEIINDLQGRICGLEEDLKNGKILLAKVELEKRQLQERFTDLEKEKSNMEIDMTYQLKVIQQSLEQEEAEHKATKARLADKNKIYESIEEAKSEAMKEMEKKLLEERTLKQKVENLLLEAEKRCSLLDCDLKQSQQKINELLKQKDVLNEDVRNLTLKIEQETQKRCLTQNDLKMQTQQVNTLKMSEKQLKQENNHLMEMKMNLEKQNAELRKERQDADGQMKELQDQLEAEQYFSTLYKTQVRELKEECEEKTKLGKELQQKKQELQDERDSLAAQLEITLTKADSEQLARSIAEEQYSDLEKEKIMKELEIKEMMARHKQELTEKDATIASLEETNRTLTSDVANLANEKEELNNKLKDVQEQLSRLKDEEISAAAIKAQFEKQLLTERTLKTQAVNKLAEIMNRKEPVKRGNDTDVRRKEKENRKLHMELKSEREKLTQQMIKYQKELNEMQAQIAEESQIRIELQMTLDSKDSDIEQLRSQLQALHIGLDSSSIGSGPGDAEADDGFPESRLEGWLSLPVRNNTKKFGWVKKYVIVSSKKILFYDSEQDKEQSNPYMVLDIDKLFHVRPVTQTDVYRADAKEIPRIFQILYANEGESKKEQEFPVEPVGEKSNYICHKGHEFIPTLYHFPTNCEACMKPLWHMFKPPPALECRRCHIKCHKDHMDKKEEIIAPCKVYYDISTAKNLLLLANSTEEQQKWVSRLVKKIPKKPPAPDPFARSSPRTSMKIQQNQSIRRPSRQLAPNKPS
5-HT2A receptor, sequence (P28223 whole entry): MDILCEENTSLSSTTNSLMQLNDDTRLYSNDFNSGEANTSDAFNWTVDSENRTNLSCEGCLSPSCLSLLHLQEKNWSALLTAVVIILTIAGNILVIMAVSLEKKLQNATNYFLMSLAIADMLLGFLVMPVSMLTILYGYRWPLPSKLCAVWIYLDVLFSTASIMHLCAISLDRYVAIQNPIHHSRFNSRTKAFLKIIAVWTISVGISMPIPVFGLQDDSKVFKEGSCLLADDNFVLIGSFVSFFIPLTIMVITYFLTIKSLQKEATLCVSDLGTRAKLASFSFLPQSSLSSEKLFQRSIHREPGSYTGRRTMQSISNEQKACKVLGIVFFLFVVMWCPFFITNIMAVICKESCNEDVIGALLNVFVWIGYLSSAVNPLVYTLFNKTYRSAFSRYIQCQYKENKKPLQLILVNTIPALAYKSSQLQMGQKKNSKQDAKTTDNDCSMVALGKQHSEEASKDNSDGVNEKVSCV
Description for IL-6: Human PBMCs were treated with 100 ng/mL LPS to induce inflammatory conditions.

In the case of `COc1cc(C[C@@H](C)N)c(OC)cc1I` [(R)-2,5-dimethoxy-4-iodoamphetamine], the “inflammation in the lungs” value in [1] is “prevent and reverse inflammation in the lungs”. Further, the 5-HT2A receptor activation result on 5-HT2A receptor is reported as “activate the 5-HT2A receptor”.
For `COc1ccc2c(c1)[nH]c1c(C)nccc12` [Harmine, 7-methyoxy-1-methyl-carboline], the MAO-A inhibition result at MAO-A is “specific MAO-A inhibitors”. On MAO-B, the MAO-B inhibition entry is on record as “poor inhibitors of MAO-B”.
`CNCCc1c[nH]c2cccc(O)c12` [Norpsilo, 4-hydroxy-N-methyl-tryptamine]: the “MAPK binding affinity value of individual component” value (shortened to “MAPK binding affinity value”) on p38-alpha (MAPK14) (combinations at 2.5 μg/mL) is 15; at p38-alpha (MAPK14) (combinations at 5 μg/mL), 1; on p38-alpha (MAPK14) (combinations at 10 μg/mL), 21; at p38-alpha (MAPK14) (combinations at 250 μg/mL) it was 21; in assay [2] (setting [4]), 0; at JNK3 (MAPK10) (row of combination at 5 μg/mL), 19. Moreover, the “expression of the anti-inflammatory cytokine IL-10” value with IL-10 is “significantly upregulate”. Further, the “anti-inflammatory effect (TNF-α expression)” value with TNF-α was “have anti-inflammatory effects at certain concentrations”.
As for `COc1ccc2c3c([nH]c2c1)C(C)=NCC3` [harmaline, 3,4-dihydro-7-methoxy-1-methyl-carboline], the MAO-A inhibition result on MAO-A is given as “specific MAO-A inhibitors”. In addition, the MAO-B inhibition result on MAO-B was “poor inhibitors of MAO-B”.
Turning to `O=C(O)c1cccnc1` [Niacin, nicotinic acid, reference compound], the “highest mean neurite outgrowth, of vehicle control” value in the assay on PC12 cells (0.35 μg/mL) is on record as 112%. Besides, the “MAPK binding affinity value” value in [2] (setting [4]) is on record as 6; in assay [2] (setting [5]), 5; on JNK3 (MAPK10) (setting [6]), 0. Besides, the “anti-inflammatory effect (TNF-α expression)” value with TNF-α was “have anti-inflammatory effects at certain concentrations”.
Take `CC(C)C1=C2C3=CC=C(CO)[C@H]4O[C@H]5[C@@H](OC[C@@H](O)[C@@H]5O)O[C@@H]4[C@]3(C)CC[C@@]2(C)CC1` [Erinacine C]: on JNK3 (MAPK10) (setting [7]), the “MAPK binding affinity value” value amounted to 6.
Consider `CN(C)CCc1c[nH]c2cccc(O)c12` [Psilocin, 4-hydroxy-N,N-dimethyltryptamine], for which the “effect on MAPK binding when used alone” value in the assay with MAPK is on record as “no effect”. In the assay on PC12 cells (0.043 μg/mL), the “highest mean neurite outgrowth, of vehicle control” value came out at 168%. The “MAPK binding affinity value” value in [2] (row of combination at 30, 1.8 ng/mL) is 1; at JNK3 (MAPK10) (setting [6]), 1; at JNK3 (MAPK10) (setting [7]), 2.
Turning to `CNCCc1c[nH]c2cccc(OP(=O)(O)O)c12` [Baeo, 4-phosphoryloxy-N-methyltryptamine], the “hallucinogenic effect after consumption” value in assay [3] (4 mg, anecdotal, Gartz 1991) was “gentle hallucinogenic experience”. Also, the “hallucinogenic effect after oral consumption” value in [3] (10 mg and 20 mg, case studies) is given as “did not produce any hallucinogenic effects”. For the same molecule, the “MAPK binding affinity value” value was determined as 2 at p38-alpha (MAPK14) (combinations at 2.5 μg/mL); 9 on p38-alpha (MAPK14) (combinations at 5 μg/mL); 1 on p38-alpha (MAPK14) (combinations at 10 μg/mL); 1 at p38-alpha (MAPK14) (combinations at 250 μg/mL); 6 on TRKA (NTRK1) (combinations at 250 μg/mL); 3 at TRKA (NTRK1) (setting [8]). Moreover, the “MAPK binding affinity value” value on TRKB (NTRK2) was found to be 12; at ROCK2 it was 0; in assay [2] (setting [9]), 1; at JNK3 (MAPK10) (setting [8]) it was 8.
For the molecule `CN(C)CCc1c[nH]c2ccccc12` [DMT, N,N-dimethyltryptamine], the “MAPK binding affinity value” value in assay [2] (setting [5]) is 5.
With `NCCc1c[nH]c2cccc(OP(=O)(O)O)c12` [Norbaeo, 4-phosphoryloxy-tryptamine], the “MAPK binding affinity value” value at p38-alpha (MAPK14) (combinations at 2.5 μg/mL) is on record as 22; on p38-alpha (MAPK14) (combinations at 5 μg/mL), 12; on p38-alpha (MAPK14) (combinations at 10 μg/mL) it was 17; at TRKA (NTRK1) (combinations at 250 μg/mL), 3; on TRKB (NTRK2) it was 0; in assay [2] (setting [9]), 3. The figures for the “MAPK binding affinity value” value (in assay [2] (rows of combinations at 62.5 μg/mL); at JNK3 (MAPK10) (row of combination at 5 μg/mL); on JNK3 (MAPK10) (setting [8])) were 3, 4 and 4, respectively. Further, the IL-6 expression result with IL-6 is on record as “significantly reduced”. For the same molecule, the “expression of the anti-inflammatory cytokine IL-10” value with IL-10 is “significantly upregulate”.
